According to patent US20260306640A1, “TECHNOLOGIES TARGETING CELL STATES” (Auron Therapeutics, Inc., priority 2023, published 2026):

Columns and labels:
KAT2A = KAT2A (Homo sapiens, UniProt Q92830); test: KAT2A degradation, Western Blot (Jess), NCI-H1048 cells; format: cell-based; set-up: degrader, Western blot (Jess); conditions: NCI-H1048 cells, KAT2A, 24 h, Western Blot, vs DMSO; read-out: KAT2A NCI-H1048 DC50
Method: (§1) MOLM-13 cells or NCI-H1048 cells were used for Western Blot analysis of KAT2A degradation. KAT2B degradation can be measured in a similar manner with NCI-H1048 cells.
(§2) H1048 cells were maintained at 37° C. in 5% CO2 and 90% humidity in HITES medium with 5% fetal bovine serum (FBS). HITES medium was […] with the following additions: 0.005 mg/ml Insulin, 0.01 mg/ml Transferrin, 30 nM Sodium selenite, 10 nM Hydrocortisone, 10 nM beta-estradiol, and extra 2 mM L-glutamine (for final concentration of 4.5 mM). Cells were plated in full media at 1 million cells/2 mL in a 6-well tissue culture treated plate with or without compounds for 24 h at 37° C. in 5% CO2.
(§3) MOLM-13 cells or NCI-H1048 cells were washed with PBS, then lysed with RIPA buffer containing 1×protease and phosphatase inhibitors (SantaCruz Biotechnologies Cat #sc-24948A). Protein was isolated by centrifugation at 12,000×g for 10 minutes at 4° C. and supernatant was collected. Protein was quantified via Bradford assay. Samples were diluted to 4 μg lysate in 16 μL RIPA buffer and then 4 μL of Jess Sample Buffer. Samples were heated at 95° C. for 5 minutes. Samples were loaded onto 12-230 kDa Jess™ Separation Module, 8×25 capillary cartridges (SM-W004, Biotechne). Antibodies loaded were: Primary antibody for KAT2A (GCN5L2 (C26A10) Rabbit mAb (3305, CST)) and for KAT2B (PCAF (C14G9)) Rabbit mAb (3378, CST) at 1:1000 and Anti-Rabbit Detection Module for Jess™ (Cat No #DM-001, Biotechne). Signal was detected by chemiluminescence.
(§4) DC50 values were determined from percent reduction of protein as compared to the DMSO control.

KAT2B = KAT2B (Homo sapiens, UniProt Q92831); test: KAT2B degradation, Western Blot (Jess), NCI-H1048 cells; format: cell-based; set-up: degrader, Western blot (Jess); conditions: NCI-H1048 cells, KAT2B, 24 h, Western Blot, vs DMSO; read-out: KAT2B NCI-H1048 DC50
Method: as §1, §2, §3, §4

KAT2A, sequence (Q92830 whole entry): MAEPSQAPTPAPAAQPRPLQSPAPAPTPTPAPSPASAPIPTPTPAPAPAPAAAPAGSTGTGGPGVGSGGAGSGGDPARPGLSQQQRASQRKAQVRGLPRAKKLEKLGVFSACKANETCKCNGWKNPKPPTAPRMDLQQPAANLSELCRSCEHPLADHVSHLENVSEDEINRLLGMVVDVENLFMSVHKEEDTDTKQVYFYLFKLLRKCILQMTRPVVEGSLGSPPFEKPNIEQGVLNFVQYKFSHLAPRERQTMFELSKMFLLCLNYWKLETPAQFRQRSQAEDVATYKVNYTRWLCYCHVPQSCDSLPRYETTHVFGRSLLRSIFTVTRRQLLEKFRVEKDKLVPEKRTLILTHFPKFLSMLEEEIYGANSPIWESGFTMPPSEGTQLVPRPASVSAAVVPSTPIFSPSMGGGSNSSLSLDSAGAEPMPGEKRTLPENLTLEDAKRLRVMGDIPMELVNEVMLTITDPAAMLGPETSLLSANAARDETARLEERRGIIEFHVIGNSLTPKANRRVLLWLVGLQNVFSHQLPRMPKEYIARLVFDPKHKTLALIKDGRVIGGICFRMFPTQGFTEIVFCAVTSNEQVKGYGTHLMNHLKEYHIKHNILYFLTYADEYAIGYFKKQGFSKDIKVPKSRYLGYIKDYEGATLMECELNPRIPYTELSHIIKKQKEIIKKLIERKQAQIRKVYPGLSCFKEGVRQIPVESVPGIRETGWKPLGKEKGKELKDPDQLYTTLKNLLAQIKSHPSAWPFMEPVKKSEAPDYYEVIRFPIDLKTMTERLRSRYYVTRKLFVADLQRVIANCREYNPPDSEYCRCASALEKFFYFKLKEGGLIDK
KAT2B, sequence (Q92831 whole entry): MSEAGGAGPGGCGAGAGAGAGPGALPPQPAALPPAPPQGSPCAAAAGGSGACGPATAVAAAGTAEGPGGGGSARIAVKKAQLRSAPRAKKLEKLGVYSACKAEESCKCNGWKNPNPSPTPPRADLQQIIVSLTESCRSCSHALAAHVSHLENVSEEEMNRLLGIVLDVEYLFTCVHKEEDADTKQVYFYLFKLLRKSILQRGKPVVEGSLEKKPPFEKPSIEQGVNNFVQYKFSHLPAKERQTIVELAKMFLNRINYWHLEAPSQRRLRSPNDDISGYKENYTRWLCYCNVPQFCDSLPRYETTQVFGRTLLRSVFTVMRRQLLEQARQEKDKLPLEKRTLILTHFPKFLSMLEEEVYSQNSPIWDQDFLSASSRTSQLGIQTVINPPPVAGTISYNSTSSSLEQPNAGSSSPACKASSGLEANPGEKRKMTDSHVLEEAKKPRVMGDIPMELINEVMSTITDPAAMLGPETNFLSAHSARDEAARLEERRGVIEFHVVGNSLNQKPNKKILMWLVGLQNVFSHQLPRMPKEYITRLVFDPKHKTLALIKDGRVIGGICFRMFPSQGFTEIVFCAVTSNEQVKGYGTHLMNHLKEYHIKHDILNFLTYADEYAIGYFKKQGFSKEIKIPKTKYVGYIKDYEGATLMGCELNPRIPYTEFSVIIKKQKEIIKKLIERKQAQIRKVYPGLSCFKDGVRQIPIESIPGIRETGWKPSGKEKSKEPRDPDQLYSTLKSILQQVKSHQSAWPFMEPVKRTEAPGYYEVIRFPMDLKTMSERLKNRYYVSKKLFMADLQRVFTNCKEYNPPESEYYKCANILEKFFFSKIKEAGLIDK

Row | SMILES | DC50 (KAT2A) [nM] | DC50 (KAT2B) [nM]
1 | Cc1c(N[C@@H]2C[C@H](c3ccc(C(=O)N4CCC5(CC4)CCN(c4ccc(C6CCC(=O)NC6=O)cc4OC(F)(F)F)CC5)cc3)CN(C)C2)cnn(C)c1=O (stereo partly shown) [Compound 269] | 1 to 30 | > 30
2 | CN1C[C@H](Nc2cnn(C)c(=O)c2Cl)C[C@H](c2ccc(C(=O)N3CCC4(CC3)CCN(c3cc(C(F)(F)F)c(C5CCC(=O)NC5=O)cn3)CC4)cc2)C1 (stereo partly shown) [Compound 270] | > 30 | > 30
3 | Cc1cc(C2CCC(=O)NC2=O)c(F)cc1N1CCC2(CCN(C(=O)c3ccc([C@H]4C[C@@H](Nc5cnn(C)c(=O)c5Br)CN(C)C4)cc3)CC2)CC1 (stereo partly shown) [Compound 275] | 1 to 30 | 1 to 30
4 | CN1C[C@H](Nc2cnn(C)c(=O)c2Cl)C[C@H](c2ccc(C(=O)N3CCC4(CC3)CCN(c3cc(F)c(C5CCC(=O)NC5=O)cc3F)CC4)cc2)C1 (stereo partly shown) [Compound 276] | < 1 | < 1
5 | CN1C[C@H](Nc2cnn(C)c(=O)c2Cl)C[C@H](c2ccc(C(=O)N3CCC4(CC3)CCN(c3ccc(C5CCC(=O)NC5=O)c(OC(F)(F)F)c3)CC4)cc2)C1 (stereo partly shown) [Compound 277] | > 30 | > 30
6 | COc1cc(N2CCC3(CCN(C(=O)c4ccc([C@H]5C[C@@H](Nc6cnn(C)c(=O)c6Br)CN(C)C5)cc4)CC3)CC2)c(F)cc1C1CCC(=O)NC1=O (stereo partly shown) [Compound 278] | 1 to 30 | > 30
7 | COc1cc(N2CCC3(CCN(C(=O)c4ccc([C@H]5C[C@@H](Nc6cnn(C)c(=O)c6Cl)CN(C)C5)cc4)CC3)CC2)c(F)cc1C1CCC(=O)NC1=O (stereo partly shown) [Compound 279] | < 1 | > 30
8 | Cc1cc(N2CCC3(CCN(C(=O)c4ccc([C@H]5C[C@@H](Nc6cnn(C)c(=O)c6Cl)CN(C)C5)cc4)CC3)CC2)cc(C)c1C1CCC(=O)NC1=O (stereo partly shown) [Compound 283] | < 1 | < 1
9 | COc1cc(N2CCC3(CCN(C(=O)c4ccc([C@H]5C[C@@H](Nc6cnn(C)c(=O)c6Br)CN(C)C5)cc4)CC3)CC2)c(C)cc1C1CCC(=O)NC1=O (stereo partly shown) [Compound 284] | < 1 | > 30
10 | COc1cc(N2CCC3(CCN(C(=O)c4ccc([C@H]5C[C@@H](Nc6cnn(C)c(=O)c6Cl)CN(C)C5)cc4)CC3)CC2)c(C)cc1C1CCC(=O)NC1=O (stereo partly shown) [Compound 285] | < 1 | > 30
11 | COc1cc(N2CCC3(CCN(C(=O)c4ccc([C@H]5C[C@@H](Nc6cnn(C)c(=O)c6Cl)CN(C)C5)cc4)CC3)CC2)cc(C)c1C1CCC(=O)NC1=O (stereo partly shown) [Compound 286] | < 1 | 1 to 30
12 | COc1cc(N2CCC3(CCN(C(=O)c4ccc([C@H]5C[C@@H](Nc6cnn(C)c(=O)c6Br)CN(C)C5)cc4)CC3)CC2)cc(C)c1C1CCC(=O)NC1=O (stereo partly shown) [Compound 287] | < 1 | 1 to 30
13 | Cc1cc(N2CCC3(CCN(C(=O)c4ccc([C@H]5C[C@@H](Nc6cnn(C)c(=O)c6Cl)CN(C)C5)cc4)CC3)CC2)cc(F)c1C1CCC(=O)NC1=O (stereo partly shown) [Compound 288] | < 1 | < 1
14 | CN1C[C@H](Nc2cnn(C)c(=O)c2Cl)C[C@H](c2ccc(C(=O)N3CCC4(CC3)CN(c3ccc(C5CCC(=O)NC5=O)c(F)c3)C4)cc2)C1 (stereo partly shown) [Compound 289] | < 1 | > 30
15 | Cc1cc(N2CC3(CCN(C(=O)c4ccc([C@H]5C[C@@H](Nc6cnn(C)c(=O)c6Cl)CN(C)C5)cc4)CC3)C2)ccc1C1CCC(=O)NC1=O (stereo partly shown) [Compound 290] | 1 to 30 | > 30
16 | Cc1cc(N2CC3(CCN(C(=O)c4ccc([C@H]5C[C@@H](Nc6cnn(C)c(=O)c6Br)CN(C)C5)cc4)CC3)C2)ccc1C1CCC(=O)NC1=O (stereo partly shown) [Compound 291] | < 1 | 1 to 30
17 | Cc1cc(N2CCC3(CC2)CN(C(=O)c2ccc([C@H]4C[C@@H](Nc5cnn(C)c(=O)c5Br)CN(C)C4)cc2)C3)ccc1C1CCC(=O)NC1=O (stereo partly shown) [Compound 292] | < 1 | 1 to 30
18 | CN1C[C@H](Nc2cnn(C)c(=O)c2Cl)C[C@H](c2ccc(C(=O)N3CCC4(CC3)CCN(c3ccc5c(C6CCC(=O)NC6=O)nccc5c3)CC4)cc2)C1 (stereo partly shown) [Compound 293] | < 1 | 1 to 30
19 | CN1C[C@H](Nc2cnn(C)c(=O)c2Br)C[C@H](c2ccc(C(=O)N3CCC4(CC3)CCN(c3ccc5c(C6CCC(=O)NC6=O)nccc5c3)CC4)cc2)C1 (stereo partly shown) [Compound 294] | < 1 | < 1
20 | Cc1c(N[C@@H]2C[C@H](c3ccc(C(=O)N4CCC5(CC4)CCN(c4ccc6c(C7CCC(=O)NC7=O)nccc6c4)CC5)cc3)CN(C)C2)cnn(C)c1=O (stereo partly shown) [Compound 295] | < 1 | 1 to 30
21 | CN1C[C@H](Nc2cnn(C)c(=O)c2Cl)C[C@H](c2ccc(C(=O)N3CCC4(CC3)CCN(c3ccc5c(C6CCC(=O)NC6=O)cncc5c3)CC4)cc2)C1 (stereo partly shown) [Compound 296] | < 1 | < 1
22 | CN1C[C@H](Nc2cnn(C)c(=O)c2Br)C[C@H](c2ccc(C(=O)N3CCC4(CC3)CCN(c3ccc5c(C6CCC(=O)NC6=O)cncc5c3)CC4)cc2)C1 (stereo partly shown) [Compound 297] | < 1 | < 1
23 | CN1C[C@H](Nc2cnn(C)c(=O)c2Cl)C[C@H](c2ccc(CN3CCN(c4ccc5cc(C6CCC(=O)NC6=O)cnc5c4)CC3)cc2)C1 (stereo partly shown) [Compound 298] | < 1 | > 30
24 | CN1C[C@H](Nc2cnn(C)c(=O)c2Br)C[C@H](c2ccc(CN3CCN(c4ccc5cc(C6CCC(=O)NC6=O)cnc5c4)CC3)cc2)C1 (stereo partly shown) [Compound 299] | < 1 | 1 to 30

Now from value to compound:

Row | DC50 (KAT2A) [nM] | DC50 (KAT2B) [nM] | SMILES
25 | < 1 | 1 to 30 | CN1C[C@H](Nc2cnn(C)c(=O)c2Br)C[C@H](c2ccc(C(=O)N3CCC4(CC3)CCN(c3ccc(C5CCC(=O)NC5=O)cc3OC(F)(F)F)CC4)cc2)C1 (stereo partly shown) [Compound 259]
26 | < 1 | 1 to 30 | CN1C[C@H](Nc2cnn(C)c(=O)c2Cl)C[C@H](c2ccc(C(=O)N3CCC4(CC3)CCN(c3ccc(C5CCC(=O)NC5=O)cc3OC(F)(F)F)CC4)cc2)C1 (stereo partly shown) [Compound 260]
27 | < 1 | < 1 | CN1C[C@H](Nc2cnn(C)c(=O)c2Br)C[C@H](c2ccc(C(=O)N3CCC4(CC3)CCN(c3ccc(C5CCC(=O)NC5=O)cn3)CC4)cc2)C1 (stereo partly shown) [Compound 261]
28 | < 1 | 1 to 30 | CN1C[C@H](Nc2cnn(C)c(=O)c2Cl)C[C@H](c2ccc(C(=O)N3CCC4(CC3)CCN(c3ccn(C5CCC(=O)NC5=O)c(=O)c3)CC4)cc2)C1 (stereo partly shown) [Compound 262]
29 | < 1 | < 1 | COc1cc(N2CCC3(CCN(C(=O)c4ccc([C@H]5C[C@@H](Nc6cnn(C)c(=O)c6Br)CN(C)C5)cc4)CC3)CC2)ccc1C1CCC(=O)NC1=O (stereo partly shown) [Compound 263]
30 | < 1 | < 1 | CN1C[C@H](Nc2cnn(C)c(=O)c2Cl)C[C@H](c2ccc(C(=O)N3CCC4(CC3)CCN(c3ncc(C5CCC(=O)NC5=O)cn3)CC4)cc2)C1 (stereo partly shown) [Compound 264]
31 | < 1 | < 1 | Cc1cc(N2CCC3(CCN(C(=O)c4ccc([C@H]5C[C@@H](Nc6cnn(C)c(=O)c6Br)CN(C)C5)cc4)CC3)CC2)ccc1C1CCC(=O)NC1=O (stereo partly shown) [Compound 265]
32 | < 1 | < 1 | Cc1cc(N2CCC3(CCN(C(=O)c4ccc([C@H]5C[C@@H](Nc6cnn(C)c(=O)c6Cl)CN(C)C5)cc4)CC3)CC2)ncc1C1CCC(=O)NC1=O (stereo partly shown) [Compound 266]
33 | < 1 | < 1 | Cc1cc(C2CCC(=O)NC2=O)cnc1N1CCC2(CCN(C(=O)c3ccc([C@H]4C[C@@H](Nc5cnn(C)c(=O)c5Cl)CN(C)C4)cc3)CC2)CC1 (stereo partly shown) [Compound 267]
34 | < 1 | > 30 | CN1C[C@H](Nc2cnn(C)c(=O)c2Cl)C[C@H](c2ccc(C(=O)N3CCC4(CC3)CCN(c3ccc(CN5CCC(=O)NC5=O)cc3)CC4)cc2)C1 [Compound 268]
35 | < 1 | < 1 | CN1C[C@H](Nc2cnn(C)c(=O)c2Br)C[C@H](c2ccc(C(=O)N3CCC4(CC3)CCN(c3ncc(C5CCC(=O)NC5=O)cn3)CC4)cc2)C1 (stereo partly shown) [Compound 271]
36 | < 1 | > 30 | Cc1c(N[C@@H]2C[C@H](c3ccc(C(=O)N4CCC5(CC4)CCN(c4cnc(C6CCC(=O)NC6=O)c(F)c4)CC5)cc3)CN(C)C2)cnn(C)c1=O (stereo partly shown) [Compound 272]
37 | < 1 | < 1 | Cc1cc(N2CCC3(CCN(C(=O)c4ccc([C@H]5C[C@@H](Nc6cnn(C)c(=O)c6Br)CN(C)C5)cc4)CC3)CC2)ncc1C1CCC(=O)NC1=O (stereo partly shown) [Compound 273]
38 | < 1 | < 1 | Cc1cc(C2CCC(=O)NC2=O)cnc1N1CCC2(CCN(C(=O)c3ccc([C@H]4C[C@@H](Nc5cnn(C)c(=O)c5Br)CN(C)C4)cc3)CC2)CC1 (stereo partly shown) [Compound 274]
